In patent US9556179B2 (BRISTOL-MYERS SQUIBB COMPANY, priority 2012, dated 2017):

Assays:
CK1δ = CK1δ (Homo sapiens (Human), UniProt P48730); assay: CK1δ kinase assay (Caliper LABCHIP electrophoretic separation of fluoresceinated peptide substrate and product); format: biochemical; conditions: 200 pM enzyme, 50 μM ATP, 22 hours at room temperature
How it was run: (§1)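 Incubated for twenty-two hours at ambient temperature, then quenched with EDTA and analyzed by electrophoretic separation of unphosphorylated and phosphorylated peptide.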

CK1ε = CK1ε (Homo sapiens (Human), UniProt P49674); assay: CK1ε kinase assay (Caliper LABCHIP electrophoretic separation of fluoresceinated peptide substrate and product); format: biochemical; conditions: 200 pM enzyme, 50 μM ATP, 22 hours at room temperature
How it was run: as §1

Sequence of CK1ε (P49674 whole entry): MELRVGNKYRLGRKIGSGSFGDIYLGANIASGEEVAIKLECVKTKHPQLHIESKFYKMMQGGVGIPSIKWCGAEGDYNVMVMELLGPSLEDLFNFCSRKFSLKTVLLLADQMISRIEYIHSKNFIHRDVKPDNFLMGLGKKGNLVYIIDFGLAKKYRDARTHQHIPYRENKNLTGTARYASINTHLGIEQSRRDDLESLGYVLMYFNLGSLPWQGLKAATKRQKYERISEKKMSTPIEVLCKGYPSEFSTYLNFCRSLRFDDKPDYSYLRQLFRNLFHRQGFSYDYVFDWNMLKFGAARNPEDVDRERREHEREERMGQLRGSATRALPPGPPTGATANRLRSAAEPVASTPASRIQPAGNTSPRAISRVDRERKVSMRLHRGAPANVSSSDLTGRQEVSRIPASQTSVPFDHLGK
Sequence of CK1δ (P48730 whole entry): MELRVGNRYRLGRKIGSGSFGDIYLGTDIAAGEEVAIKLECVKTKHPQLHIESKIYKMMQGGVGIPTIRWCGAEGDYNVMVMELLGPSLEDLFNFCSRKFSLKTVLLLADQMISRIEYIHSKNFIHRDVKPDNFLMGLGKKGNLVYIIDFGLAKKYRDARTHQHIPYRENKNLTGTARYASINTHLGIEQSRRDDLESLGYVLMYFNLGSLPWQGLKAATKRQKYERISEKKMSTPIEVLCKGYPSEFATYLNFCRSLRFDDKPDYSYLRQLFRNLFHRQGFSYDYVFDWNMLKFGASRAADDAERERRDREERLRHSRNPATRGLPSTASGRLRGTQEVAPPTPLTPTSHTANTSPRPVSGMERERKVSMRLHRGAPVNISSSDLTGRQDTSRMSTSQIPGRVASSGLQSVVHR

SMILES | IC50 (CK1δ) [nM] | IC50 (CK1ε) [nM]
Cc1cc[nH]c1C(=O)Nc1cn2nc(-c3c(-c4ccc(F)cc4)nc(C)n3C)ccc2n1 [Compound 326, N-(6-(4-(4-fluorophenyl)-1,2-dimethyl-1H-imidazol-5-yl)imidazo[1,2-b]pyridazin-2-yl)-3-methyl-1H-pyrrole-2-carboxamide] | 2.68 | 12.3
O=C(Nc1cn2nc(-c3c(-c4ccc(F)cc4)ncn3C3CCN(C(=O)c4ccns4)CC3)ccc2n1)c1ccnc(F)c1 [Compound 73, 2-fluoro-N-(6-(4-(4-fluorophenyl)-1-(1-(isothiazole-5-carbonyl)piperidin-4-yl)-1H-imidazol-5-yl)imidazo[1,2-b]pyridazin-2-yl)isonicotinamide] | 0.354 | 0.608
O=C(Nc1cn2nc(-c3c(-c4ccc(F)cc4)ncn3C3CC3)ccc2n1)c1ccnc(N2CCOCC2)c1 [Compound 428, N-(6-(1-Cyclopropyl-4-(4-fluorophenyl)-1H-imidazol-5-yl)imidazo[1,2-b]pyridazin-2-yl)-2-morpholinoisonicotinamide] | 0.9 | 9.1
Nc1ccc2nc(-c3ccc(F)cc3)c(-c3ccc4nc(NC(=O)c5ccncc5)cn4n3)n2n1 [Compound 224, N-(6-amino-2-(4-fluorophenyl)-[3,6′-biimidazo[1,2-b]pyridazin]-2′-yl)isonicotinamide] | 0.694 | 2.81
CC(C)c1nc(-c2ccc(F)cc2)c(-c2ccc3nc(NC(=O)c4ccnc(F)c4)cn3n2)n1CC(F)F [Compound 287, N-(6-(1-(2,2-difluoroethyl)-4-(4-fluorophenyl)-2-isopropyl-1H-imidazol-5-yl)imidazo[1,2-b]pyridazin-2-yl)-2-fluoroiso-nicotinamide] | 0.776 | 9.17
Cc1nc(-c2ccc(F)cc2)c(-c2ccc3nc(NC(=O)c4snnc4-c4ccccc4)cn3n2)n1C [Compound 340, N-(6-(4-(4-fluorophenyl)-1,2-dimethyl-1H-imidazol-5-yl)imidazo[1,2-b]pyridazin-2-yl)-4-phenyl-1,2,3-thiadiazole-5-carboxamide] | 0.4 | 6.28
O=C(Nc1cn2nc(-c3c(-c4ccc(F)cc4)ncn3CCOCCO)ccc2n1)c1ccnc(F)c1 [Compound 234] | 0.456 | 2.31
Cn1cnc(-c2ccc(F)cc2)c1-c1ccc2nc(NC(=O)c3ccnc(F)c3)cn2n1 [Compound 231, 2-fluoro-N-(6-(4-(4-fluorophenyl)-1-methyl-1H-imidazol-5-yl)imidazo[1,2-b]pyridazin-2-yl) isonicotinamide] | 0.417 | 2.91
O=C(Nc1cn2nc(-c3c(-c4ccc(F)cc4)nc4n3CCCC4)ccc2n1)c1ccncc1 [Compound 444, N-(6-(2-(4-Fluorophenyl)-5,6,7,8-tetrahydroimidazo[1,2-a]pyridin-3-yl)imidazo[1,2-b]pyridazin-2-yl)isonicotinamide] | 0.2 | 2.4
Cc1nc(-c2ccc(F)cc2)c(-c2ccc3nc(NC(=O)C4CCC(=O)N4)cn3n2)n1C (centres unmarked) [Compound 366, N-(6-(4-(4-fluorophenyl)-1,2-dimethyl-1H-imidazol-5-yl)imidazo[1,2-b]pyridazin-2-yl)-5-oxoprolinamide] | 1.72 | 25.1
Cc1nc(-c2ccc(F)cc2)c(-c2ccc3nc(NC(=O)c4ccnc(F)c4)c(Cl)n3n2)n1C [Compound 412, N-(3-Chloro-6-(4-(4-fluorophenyl)-1,2-dimethyl-1H-imidazol-5-yl)imidazo[1,2-b]pyridazin-2-yl)-2-fluoroisonicotinamide] | 2.25 | 26.6
Cc1nc(-c2ccc(F)cc2)c(-c2ccc3nc(NC(=O)c4cccc(-c5cccnc5)c4)cn3n2)n1C [Compound 325, N-(6-(4-(4-fluorophenyl)-1,2-dimethyl-1H-imidazol-5-yl)imidazo[1,2-b]pyridazin-2-yl)-3-(pyridin-3-yl) benzamide] | 0.323 | 1.44
CC(C)OC(=O)N1CCn2c(nc(-c3ccc(F)cc3)c2-c2ccc3nc(NC(=O)c4ccnc(F)c4)cn3n2)C1 [Example 475] | 0.7 | 8.1
O=C(Nc1cn2nc(-c3c(-c4ccc(F)cc4)ncn3-c3cccnc3)ccc2n1)c1cccc(-c2cccnc2)c1 [Compound 425, N-(6-(4-(4-Fluorophenyl)-1-(pyridin-3-yl)-1H-imidazol-5-yl)imidazo[1,2-b]pyridazin-2-yl)-3-(pyridin-3-yl)benzamide] | 1.1 | 11
O=C(Nc1cn2nc(-c3c(-c4ccc(F)cc4)ncn3CC(=O)N3CCOCC3)ccc2n1)c1ccnc(F)c1 [Compound 266, 2-fluoro-N-(6-(4-(4-fluorophenyl)-1-(2-(4-morpholinyl)-2-oxoethyl)-1H-imidazol-5-yl)imidazo[1,2-b]pyridazin-2-yl)isonicotinamide] | 0.416 | 14.1
O=C(Nc1cn2nc(-c3c(-c4ccc(F)cc4)nc4n3CCNC4)ccc2n1)c1ccnc(N2CCOCC2)c1 [Compound 458, N-(6-(2-(4-Fluorophenyl)-5,6,7,8-tetrahydroimidazo[1,2-a]pyrazin-3-yl)imidazo[1,2-b]pyridazin-2-yl)-2-morpholinoisonicotinamide] | 0.3 | 3.7
O=C(Nc1cn2nc(-c3c(-c4ccc(F)cc4)nc4n3CCCC4)ccc2n1)c1cccc(-c2cccnc2)c1 [Compound 442, N-(6-(2-(4-Fluorophenyl)-5,6,7,8-tetrahydroimidazo[1,2-a]pyridin-3-yl)imidazo[1,2-b]pyridazin-2-yl)-3-(pyridin-3-yl)benzamide] | 0.4 | 2.5
Cc1nc(-c2cccnc2)sc1C(=O)Nc1cn2nc(-c3c(-c4ccc(F)cc4)ncn3C3CNC3)ccc2n1 [Compound 153, N-(6-(1-(azetidin-3-yl)-4-(4-fluorophenyl)-1H-imidazol-5-yl)imidazo[1,2-b]pyridazin-2-yl)-4-methyl-2-(pyridin-3-yl)thiazole-5-carboxamide] | 0.204 | 5.29
Cc1nccn1CCCn1cnc(-c2ccc(F)cc2)c1-c1ccc2nc(NC(=O)c3ccnc(F)c3)cn2n1 [Compound 271, 2-fluoro-N-(6-(4-(4-fluorophenyl)-1-(3-(2-methyl-1H-imidazol-1-yl)propyl)-1H-imidazol-5-yl)imidazo[1,2-b]pyridazin-2-yl) isonicotinamide] | 0.897 | 5.97
O=C(Nc1cn2nc(-c3c(-c4ccc(F)cc4)nc4ccccn34)ccc2n1)c1ccnc(F)c1 [Compound 196, 2-fluoro-N-(6-(2-(4-fluorophenyl)imidazo[1,2-a]pyridin-3-yl)imidazo[1,2-b]pyridazin-2-yl)isonicotinamide] | 3.65 | 5.91
CN1CC(n2cnc(-c3ccc(F)cc3)c2-c2ccc3nc(NC(=O)c4ccncc4)cn3n2)C1 [Compound 158, N-(6-(4-(4-fluorophenyl)-1-(1-methylazetidin-3-yl)-1H-imidazol-5-yl)imidazo[1,2-b]pyridazin-2-yl)isonicotinamide] | 0.854 | 2.73
Cc1nc(-c2ccc(F)cc2)c(-c2ccc3nc(NC(=O)c4cccc5ccncc45)cn3n2)n1C [Compound 331, N-(6-(4-(4-fluorophenyl)-1,2-dimethyl-1H-imidazol-5-yl)imidazo[1,2-b]pyridazin-2-yl)-8-isoquinoline-carboxamide] | 0.249 | 1.45
